Measurements published in paper PMC9657321, “Identification of Boronate-Containing Diarylpyrimidine Derivatives as Novel HIV-1 Non-Nucleoside Reverse Transcriptase Inhibitors” (Molecules, 2022).
Where two headings read alike, the source gives them in different places.

Key:
[1] = Cytotoxicity in mock-infected MT-4 cells, MTT method; format: cell-based; conditions: human
Description: The 3-(4,5-dimethylthiazol-2-yl)-2,5-diphenyltetrazolium bromide (MTT) method was used to evaluate the antiviral activity and cytotoxicity of the synthesized compounds as previously described. At the beginning of each experiment, stock solutions (10× final concentration) of test compounds were added in 25 μL volumes to two series of triplicate wells for allowing the simultaneous evaluation of their effects on mock- and HIV-infected cells. The serial 5-fold dilutions of the compounds were made in flat-bottomed 96-well microtiter trays directly, including untreated control HIV-1 and mock infected cell samples for each sample using a Biomek 3000 robot (Beckman Instruments, Fullerton, CA, USA). HIV-1 (IIIB) and mutant HIV-1 strains (RES056, F227L/V106A, L100I, K103N, E138K, Y181C, and Y188L) stock (50 μL at 100–300 CCID50) (50% cell culture infectious dose) or culture medium was added to either the infected or mock-infected wells of the microtiter tray. Mock-infected cells were used to evaluate the effect on uninfected cells to assess the cytotoxicity of the test compounds. Exponentially growing MT-4 cells were centrifuged for […] at 1000 rpm (Eppendorf 5424, Hamburg, Germany) and then the supernatant was discarded. The MT-4 cells were resuspended at 6 × 10^5 cells/mL and 50 μL aliquots were transferred to the microtiter tray wells. At 5 days after infection, the viability of mock- and HIV-infected cells was determined spectrophotometrically by means of MTT assay.
The MTT assay is based on the reduction of yellow-colored MTT (Acros Organics, Geel, Belgium) by mitochondrial dehydrogenase of metabolically active cells to form a blue-purple formazan. The absorbances were read in an eight-channel computer-controlled photometer at the wavelengths of 540 and 690 nm. All data were calculated using the median optical density (OD) value of three wells.

[2] = test system: HIV-1 double-mutant strain RES056 (K103N/Y181C); assay: microbe, parasite or virus in culture; format: cell-based; conditions: for EC50: Human immunodeficiency virus 1, MT4, read-out: EC50 RES056; for RF RES056: ratio EC50(resistant strain)/EC50(wild-type strain); for SI RES056: selectivity index, ratio CC50/EC50, RES056
Description: (§1) All data were calculated using the median optical density (OD) value of three wells.

[3] = test system: HIV-1 Y181C mutant strain; assay: microbe, parasite or virus in culture; format: cell-based; conditions: for EC50: Human immunodeficiency virus 1, MT4, read-out: EC50 Y181C, MT-4 cells, Y181C, MTT method; for RF Y181C: ratio EC50 (resistant viral strain)/EC50 (wild-type viral strain)
Description: as §1

[4] = test system: HIV-1 L100I mutant strain; assay: microbe, parasite or virus in culture; format: cell-based; conditions: for EC50: Human immunodeficiency virus 1, MT4, read-out: EC50 L100I; for RF L100I: ratio EC50 (resistant viral strain)/EC50 (wild-type viral strain)
Description: as §1

[5] = test system: HIV-1 E138K mutant strain; assay: microbe, parasite or virus in culture; format: cell-based; conditions: for EC50: Human immunodeficiency virus 1, MT4, read-out: EC50 E138K; for RF E138K: ratio EC50 (resistant viral strain)/EC50 (wild-type viral strain)
Description: as §1

[6] = test system: HIV-1 K103N mutant strain; assay: microbe, parasite or virus in culture; format: cell-based; conditions: for EC50: Human immunodeficiency virus 1, MT4, read-out: EC50 K103N, MT-4 cells, K103N, MTT method; for RF K103N: ratio EC50 (resistant viral strain)/EC50 (wild-type viral strain)
Description: as §1

wild-type HIV-1 (IIIB) = assay: microbe, parasite or virus in culture; format: cell-based; conditions: for EC50: Human immunodeficiency virus 1, MT4, MT-4 cells, HIV-1 IIIB, MTT method; for RF IIIB: ratio EC50(resistant strain)/EC50(wild-type strain); for SI IIIB: selectivity index, ratio CC50/EC50, IIIB
Description: as §1

[7] = test system: HIV-1 Y188L mutant strain; assay: microbe, parasite or virus in culture; format: cell-based; conditions: for EC50: Human immunodeficiency virus 1, MT4, read-out: EC50 Y188L; for RF Y188L: ratio EC50 (resistant viral strain)/EC50 (wild-type viral strain)
Description: as §1

[8] = test system: HIV-1 F227L + V106A mutant strain; assay: microbe, parasite or virus in culture; format: cell-based; conditions: for EC50: Human immunodeficiency virus 1, MT4, read-out: EC50 F227L + V106A; for RF F227L + V106A: ratio EC50 (resistant viral strain)/EC50 (wild-type viral strain)
Description: as §1

[9] = biological target: T1, recombinant wild-type HIV-1 RT enzyme (Human immunodeficiency virus type 1 group M subtype B, UniProt P03366); assay: HIV-1 RT inhibition assay (ELISA, Roche RT assay kit); format: biochemical
T1 construct: recombinant wild-type HIV-1 RT enzyme; purchased Roche (Basel, Switzerland)
Description: The HIV-1 RT inhibition assay was performed by using an RT assay kit produced by Roche (Basel, Switzerland).
The biotin-labeled dNTPs were incorporated into the cDNA chain in the presence of RT and bound to streptavidin. The washing buffer was used to wash the unbound dNTPs and add the anti-DIG-POD to the MTPs.
The peroxide substrate (ABST) solution was added to the MTPs, when the unbound anti-DIG-PODs were washed out. […] The absorbance of the sample was determined at OD405 nm using a microtiter plate ELISA reader. The percentage inhibitory activity of RT inhibitors was calculated according to the following formula: % inhibition = [O.D. value with RT but without inhibitors − O.D. value with RT and inhibitors]/[O.D. value with RT and inhibitors − O.D. value without RT and inhibitors].

[10] = mock-infected MT-4 cells, MTT method, read-out: CC50

| SMILES | EC50 [2] [nM] | EC50 [3] [nM] | EC50 [4] [nM] | EC50 [5] [nM] | EC50 (wild-type HIV-1 (IIIB)) [nM] | EC50 [7] [nM] | CC50 at 5 days [1] [nM] | RF RES056 [2] | RF IIIB (wild-type HIV-1 (IIIB)) | melting point [°C] | SI RES056 [2] | SI IIIB (wild-type HIV-1 (IIIB)) | other results |
| --- | --- | --- | --- | --- | --- | --- | --- | --- | --- | --- | --- | --- | --- |
| O=C1Nc2ccc(Cl)cc2[C@@](C#CC2CC2)(C(F)(F)F)O1 [EFV, efavirenz, reference compound] | 337 ± 149 | 5 ± 2 | 32 ± 8 | 6 ± 2 | 3 ± 1 | 261 ± 118 |  |  |  |  |  |  | CC50 at 5 days [1, 10]: > 6350 nM; EC50 [6]: 71 ± 20 nM |
| Cc1cc(C#N)cc(C)c1Oc1nc(Nc2ccc(B3OC(C)(C)C(C)(C)O3)cc2)nc2ccsc12 [Compound 3a, 3,5-Dimethyl-4-((2-((4-(4,4,5,5-tetramethyl-1,3,2-dioxaborolan-2-yl)phenyl)amino)thieno [3,2-d]pyrimidin-4-yl)oxy)benzonitrile] | > 27400 | 6290 ± 3270 | 2510 ± 155 | 193 ± 77 | 64 ± 21 | 6020 ± 3140 | 27400 ± 1200 | > 431 | 1.0 |  |  |  | RF Y181C [3]: 98.8; RF L100I [4]: 39.4; EC50 [8]: 4950 ± 1980 nM; RF F227L + V106A [8]: 77.8; RF E138K [5]: 3.0; EC50 [6]: 81 ± 8 nM; RF K103N [6]: 1.3; RF Y188L [7]: 94.7; IC50 [9]: 354 ± 43 nM |
| Cc1cc(C#N)cc(C)c1Oc1nc(Nc2ccc(B3OC(C)(C)C(C)(C)O3)cc2)nc2c1CCCC2 [Compound 3i, 3,5-Dimethyl-4-((2-((4-(4,4,5,5-tetramethyl-1,3,2-dioxaborolan-2-yl)phenyl)amino) -5,6,7,8-tetrahydroquinazolin-4-yl)oxy)benzonitrile] | > 27700 |  |  |  | 191 ± 88 |  | 27700 ± 1270 | > 145 | 1.0 | 233 to 235 | < 1 | 145 |  |
| Cc1cc(C#N)cc(C)c1Oc1nc(Nc2ccc(B3OC(C)(C)C(C)(C)O3)cc2)nc2scnc12 [Compound 3e, 3,5-Dimethyl-4-((5-((4-(4,4,5,5-tetramethyl-1,3,2-dioxaborolan-2-yl)phenyl)amino)thiazolo [5,4-d]pyrimidin-7-yl)oxy)benzonitrile] | > 26500 |  |  |  | 215 ± 91 |  | 26500 ± 1780 | > 123 | 1.0 |  |  |  |  |
| Cc1cc(C#N)cc(C)c1Oc1nc(Nc2ccc(C#N)cc2)nc(N)c1Br [ETR, etravirine, reference compound] | 61 ± 34 | 16 ± 5 | 8 ± 2 | 10 ± 5 | 4 ± 1 | 19 ± 7 | > 4600 |  |  |  |  |  | EC50 [8]: 26 ± 17 nM; EC50 [6]: 3 ± 8 nM |
| Cc1cc(C#N)cc(C)c1Oc1nc(Nc2ccc(B3OC(C)(C)C(C)(C)O3)cc2)nc2ncsc12 [Compound 3d, 3,5-Dimethyl-4-((5-((4-(4,4,5,5-tetramethyl-1,3,2-dioxaborolan-2-yl)phenyl)amino)thiazolo [4,5-d]pyrimidin-7-yl)oxy)benzonitrile] | > 24100 |  |  |  | 120 ± 56 |  | 24100 ± 3760 | > 201 | 1.0 | 117 to 119 | < 1 | 201 |  |
| Cc1ccnc2c1NC(=O)c1cccnc1N2C1CC1 [NVP, nevirapine, reference compound] | > 15000 | 5060 ± 922 | 623 ± 277 | 168 | 151 ± 37 | 9080 ± 2410 |  | 99.9 | 1.0 |  |  |  | CC50 at 5 days [1, 10]: > 15000 nM; RF Y181C [3]: 33.6; RF L100I [4]: 4.1; EC50 [8]: 8050 ± 3540 nM; RF F227L + V106A [8]: 53.5; RF E138K [5]: 1.1; RF K103N [6]: 26.1; RF Y188L [7]: 60.4 |
| Cc1cc(C#N)cc(C)c1Oc1nc(Nc2ccc(B3OC(C)(C)C(C)(C)O3)cc2)nc2cccnc12 [Compound 3h, 3,5-Dimethyl-4-((2-((4-(4,4,5,5-tetramethyl-1,3,2-dioxaborolan-2-yl)phenyl)amino)pyrido [3,2-d]pyrimidin-4-yl)oxy)benzonitrile] | > 26000 |  |  |  | 112 ± 24 |  | 26000 ± 2330 | > 232 | 1.0 | 177 to 179 | < 1 | 232 | fold more potent than 3g (wild-type HIV-1 (IIIB)): 55 fold |
| Cc1cc(C#N)cc(C)c1Oc1nc(Nc2ccc(B3OC(C)(C)C(C)(C)O3)cc2)nc2ccccc12 [Compound 3g, 3,5-Dimethyl-4-((2-((4-(4,4,5,5-tetramethyl-1,3,2-dioxaborolan-2-yl)phenyl)amino)quinazolin-4-yl)oxy)benzonitrile] | > 254000 |  |  |  | 6170 ± 1830 |  | > 254000 | > 41.1 | 1.0 | 147 to 149 |  | > 41 |  |
| Cc1cc(C#N)cc(C)c1Oc1nc(Nc2ccc(B3OC(C)(C)C(C)(C)O3)cc2)nc2sccc12 [Compound 3b, 3,5-Dimethyl-4-((2-((4-(4,4,5,5-tetramethyl-1,3,2-dioxaborolan-2-yl)phenyl)amino)thieno [2,3-d]pyrimidin-4-yl)oxy)benzonitrile] | 174000 ± 34500 |  |  |  | 1300 ± 275 |  | > 254000 | 134 | 1.0 |  |  |  |  |
| Cc1cc(C#N)cc(C)c1Oc1ccnc(Nc2ccc(B3OC(C)(C)C(C)(C)O3)cc2)n1 [Compound 3f, 3,5-Dimethyl-4-((2-((4-(4,4,5,5-tetramethyl-1,3,2-dioxaborolan-2-yl)phenyl)amino)pyrimidin-4-yl)oxy)benzonitrile] | > 30600 |  |  |  | 149 ± 49 |  | 30600 ± 1920 | > 206 | 1.0 | 202 to 204 | < 1 | 206 |  |
| Cc1cc(C#N)cc(C)c1Oc1nc(Nc2ccc(B3OC(C)(C)C(C)(C)O3)cc2)nc2c1SCCC2 [Compound 3j, 3,5-Dimethyl-4-((2-((4-(4,4,5,5-tetramethyl-1,3,2-dioxaborolan-2-yl)phenyl)amino) -7,8-dihydro-6H-thiopyrano [3,2-d]pyrimidin-4-yl)oxy)benzonitrile] | > 25900 |  |  |  | 141 ± 53 |  | 25900 ± 1410 | > 184 | 1.0 | 201 to 203 | < 1 | 184 |  |
